“And” between values parts separate entries of the source, which are not always exact repeats. Equal values may be shown once. Read-outs that look alike come from different tables or passages of the source.
Key:
HepaRG spheroids [1] = test: Repeated-exposure toxicity in HepaRG spheroids with or without BA mixture, cellular ATP content; format: cell-based, human; conditions: for Cholestatic Index (EC50 (+BA) / EC50 (-BA)) / CC50: ATP, one value per independent experiment; for CC50: Homo sapiens, HepaRG, compound alone, read-out: Without BA EC50
Protocol: Cryopreserved differentiated HepaRG cells (Biopredic International, France) were thawed according to the supplier’s instructions. The cells were seeded in Williams’ medium E with GlutaMAX^TM containing the thaw, seed and general purpose additive (ADD670; Biopredic International). The cells were seeded at a density of 2,000 viable cells per well in ULA plates. From day 5, the spheroids were maintained in medium containing 0.5% DMSO, the serum-free induction additive (ADD650, Biopredic International), 20 ng/ml epidermal growth factor and 10 ng/ml hepatocyte growth factor (HumaXpress, Nordic BioSite, Sweden).
(§1) Toxicity studies were started at day 8 and day 5 for PHH and HepaRG spheroids, respectively.

[2] = system: multi-donor PHH spheroids; test: Repeated-exposure toxicity in multi-donor PHH spheroids with or without BA mixture, albumin secretion; format: cell-based, human; conditions: for EC50: Homo sapiens, 336 h, 14 days repeated exposure; for Cholestatic Index (EC50 (+BA) / EC50 (-BA)) / Cholestatic risk classification based on CIx: 14 days; for Cholestatic risk classification based on CIx: multi-donor PHH spheroids
Protocol: The cells were seeded in PHH medium (Williams’ medium E containing 100 units/ml penicillin, 100 μg/ml streptomycin, 2 mM L-glutamine, 10 μg/ml insulin, 5.5 μg/ml transferrin, 6.7 ng/ml sodium selenite, 100 nM dexamethasone) supplemented with 10% fetal bovine serum. […] When PHH had reassembled into compact aggregates (day 4–6 after seeding), spheroids were shifted to serum-free PHH medium. […] The spheroids were maintained in serum-free PHH medium.
as §1

PHH spheroids [3] = test: Repeated-exposure toxicity in PHH spheroids with or without BA mixture, cellular ATP content;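 on all read-outs here: primary human hepatocyte spheroids dosed every second day with compound, with or without a bile acid mixture, viability read as cellular ATP by luminescence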; conditions: for CC50: Homo sapiens; for CC50 / Cholestatic Index (EC50 (+BA) / EC50 (-BA)): one value per independent experiment; for Cholestatic risk classification based on CIx / CIx (mean of the independent experiments) / Cholestatic Index (EC50 (+BA) / EC50 (-BA)) / CIx: PHH spheroids; for CIx (mean of the independent experiments): 8 days co-exposure with BAs vs compound alone; for Cholestatic Index (EC50 (+BA) / EC50 (-BA)): ATP; for CIx: cellular ATP content read-out, Supplementary Fig. S2A
Protocol: Cryopreserved PHH (Bioreclamation IVT, USA) were thawed according to the supplier’s instructions. The cells were seeded in PHH medium (Williams’ medium E containing 100 units/ml penicillin, 100 μg/ml streptomycin, 2 mM L-glutamine, 10 μg/ml insulin, 5.5 μg/ml transferrin, 6.7 ng/ml sodium selenite, 100 nM dexamethasone) supplemented with 10% fetal bovine serum. The cells were seeded at a density of 1,500 viable cells per well in ultra-low attachment (ULA) plates (Corning). When PHH had reassembled into compact aggregates (day 4–6 after seeding), spheroids were shifted to serum-free PHH medium. […] The hepatocytes were derived from 5 male and 5 female donors and were aggregated into 3D microtissues in GravityPLUS™ hanging drop plates and cultivated and assayed in GravityTRAP™ plates. The spheroids were maintained in serum-free PHH medium.
(§5) Stock solutions of the compounds were diluted in culture medium to a maximal final DMSO concentration of 0.3% for PHH spheroids and 0.6% for HepaRG spheroids. Toxicity studies were started at day 8 and day 5 for PHH and HepaRG spheroids, respectively. Spheroids were treated every other day with the compounds in the presence or absence of the BA mixture. Cellular ATP content was determined as a marker of cell viability using the CellTiter-Glo Luminescent Cell Viability Assay (Promega, Sweden). When indicated, albumin concentrations were determined by ELISA (Bethyl laboratories, USA).
(§6) To evaluate the cholestatic risk of the tested compounds we introduced the cholestatic index (CIx). The CIx is defined as the ratio between the EC50-value from co-exposure to a compound and the BA mixture and the EC50-value from exposure to the compound alone.

PHH spheroids [4] = test: Toxicity in PHH spheroids with or without BA mixture, albumin secretion read-out (Supplementary Fig. S2); conditions: 8 days, Supplementary Fig. S2B
Protocol: as §5, §6

[5] = system: ABCB11, SRXN1, NFE2L2, DR5 expression in PHH spheroids; test: RT-qPCR gene expression in PHH spheroids; format: cell-based, human; conditions: 8 days
Protocol: (§2) Total RNA was extracted using Qiazol according to the manufacturer’s protocol. RNA was reverse-transcribed into cDNA with SuperScript III reverse transcriptase. RT-qPCR analysis was performed with a 7500 Fast Real-Time PCR system using a TaqMan Universal or SYBR Green mix.

[6] = system: ABCB11, SRXN1, NFE2L2, DR5 expression in HepaRG spheroids; test: RT-qPCR gene expression in HepaRG spheroids; format: cell-based, human; conditions: 8 days; for DR5 expression / NFE2L2 expression / SRXN1 expression: co-exposure with non-toxic BA mixture compared to compound or BAs alone
Protocol: as §2

PHH spheroids [7] = test: Bile acid accumulation (fluorescent taurocholic acid derivative, confocal microscopy) in PHH spheroids; format: cell-based, human; conditions: repeated exposure for 8 days
Protocol: (§3) BA accumulation was assessed with a fluorescently labelled taurocholic acid derivative, tauro-nor-THCA-25-DBD (Genomembrane Company, Ltd, Japan). After 6 days of chlorpromazine exposure, the spheroids were co-exposed to chlorpromazine and 20 μM tauro-nor-THCA-25-DBD for an additional 2 days. Fluorescence was assessed by confocal microscopy (Zeiss LSM 710).

HepaRG spheroids [8] = test: Bile acid accumulation (fluorescent taurocholic acid derivative, confocal microscopy) in HepaRG spheroids; format: cell-based, human
Protocol: as §3

[9] = system: F-actin cytoskeleton in PHH spheroids; test: F-actin cytoskeleton integrity (Phalloidin staining) in PHH spheroids; format: cell-based, human; conditions: 8 days
Protocol: (§4) Spheroids were fixed in 4% paraformaldehyde at 4 °C O/N. Immunohistochemistry was performed on cryosections (8 μm) for BSEP (Atlas, Sweden) and MRP2 (Abcam, UK). […] F-actin was visualized using Alexa Fluor 488 Phalloidin. Slides were mounted with ProLong Gold Antifade Mountant with DAPI and fluorescence was assessed by confocal microscopy (Zeiss LSM 710). Surface expression of the BA transporters was quantified using CellProfiler software.

[10] = system: F-actin cytoskeleton in HepaRG spheroids; test: F-actin cytoskeleton integrity (Phalloidin staining) in HepaRG spheroids; format: cell-based, human; conditions: 8 days
Protocol: as §4

BSEP = conditions: quoted in the discussion, no reference given; read-out: BSEP inhibition IC50; cited from earlier work
[11] = 8 days co-exposure with BAs vs compound alone
[12] = 192 h, 8 days repeated exposure
[13] = 336 h, 14 days repeated exposure
[14] = multi-donor PHH spheroids (10 donors), co-exposure with BA mixture, albumin secretion, read-out: With BA EC50
[15] = multi-donor PHH spheroids (10 donors), compound alone, albumin secretion, read-out: Without BA EC50
[16] = multi-donor PHH spheroids (10 donors), albumin secretion
[17] = 192 h, read-out: Without BA EC50, PHH spheroids, 8 days repeated exposure, compound alone, ATP
[18] = 336 h, read-out: Without BA EC50, PHH spheroids, 14 days repeated exposure, compound alone, ATP
[19] = co-exposure with non-toxic BA mixture compared to compound or BAs alone

Row | Structure (SMILES) | Cholestatic risk classification based on CIx (HepaRG spheroids [1]; 8 days) | CIx (mean of the independent experiments) (HepaRG spheroids [1]; [11]) | Cholestatic Index (EC50 (+BA) / EC50 (-BA)) (HepaRG spheroids [1]; 8 days) | Cholestatic Index (EC50 (+BA) / EC50 (-BA)) (HepaRG spheroids [1]; 14 days) | CC50 (HepaRG spheroids [1]; [12]) | CC50 (HepaRG spheroids [1]; [13]) | EC50 [2, 14] | EC50 [2, 15] | CC50 (PHH spheroids [3]; [17]) | CC50 (PHH spheroids [3]; [18]) | Cholestatic risk classification based on CIx (PHH spheroids [3]; 8 days) | CIx (mean of the independent experiments) (PHH spheroids [3]) | Cholestatic Index (EC50 (+BA) / EC50 (-BA)) (PHH spheroids [3]; 8 days) | Cholestatic Index (EC50 (+BA) / EC50 (-BA)) (PHH spheroids [3]; 14 days) | Cholestatic Index (EC50 (+BA) / EC50 (-BA)) ([2]; both, human) | IC50 (BSEP) | other results
1 | CN(C)[C@@H]1C(O)=C(C(N)=O)C(=O)[C@@]2(O)C(O)=C3C(=O)c4c(O)cccc4[C@@](C)(O)[C@H]3C[C@@H]12 [Tetracycline, tetracycline] | low cholestatic risk (Compounds with a CIx ≥ 0.80) | 1.05 ± 0.12 | 0.91 and 1.13 and 1.12 | 0.95 and 1.18 and 1.16 | 242 µM | 121 µM | 123 µM | 120 µM | 116 µM | 74 µM | low cholestatic risk (Compounds with a CIx ≥ 0.80) | 1.00 ± 0.08 | 1.01 and 0.91 and 1.07 | 1.41 and 1.07 and 0.94 | – | – | Cholestatic risk classification based on CIx (HepaRG spheroids [1]; 14 days): low cholestatic risk (Compounds with a CIx ≥ 0.80); Cholestatic Index (EC50 (+BA) / EC50 (-BA)) [2, 16]: 1.03; Cholestatic risk classification based on CIx [2]: low cholestatic risk (Compounds with a CIx ≥ 0.80); CIx (PHH spheroids [3]; 8 days): 0.87; Cholestatic risk classification based on CIx (PHH spheroids [3]; 14 days): low cholestatic risk (Compounds with a CIx ≥ 0.80); CIx (PHH spheroids [4]): 1.08
2 | CCC(=O)O[C@H]1[C@H](O[C@@H]2[C@@H](C)[C@H](O[C@H]3C[C@@](C)(OC)[C@@H](O)[C@H](C)O3)[C@@H](C)C(=O)O[C@H](CC)[C@@](C)(O)[C@H](O)[C@@H](C)C(=O)[C@H](C)C[C@@]2(C)O)O[C@H](C)C[C@@H]1N(C)C [Erythromycin estolate, erythromycin estolate] | – | – | – | – | – | – | 18 µM | 28 µM | – | – | – | – | – | – | – | – | Cholestatic Index (EC50 (+BA) / EC50 (-BA)) [2, 16]: 0.64; Cholestatic risk classification based on CIx [2]: cholestatic risk (compounds with a CIx ≤ 0.80 were considered to have cholestatic risk)
3 | CC(=O)Nc1ccc(O)cc1 [Acetaminophen, acetaminophen] | – | 1.02 ± 0.03 | – | – | 1600 µM | 1000 µM | 1830 µM | 1910 µM | 1090 µM | 804 µM | – | 1.89 ± 0.37 | – | – | – | – | DR5 expression [5, 19]: no induction of DR5; NFE2L2 expression [5, 19]: no changes in SRXN1 or NFE2L2 expression; SRXN1 expression [5, 19]: no changes in SRXN1 or NFE2L2 expression; DR5 expression [6]: no induction of DR5; NFE2L2 expression [6]: no changes in SRXN1 or NFE2L2 expression; SRXN1 expression [6]: no changes in SRXN1 or NFE2L2 expression
4 | Clc1ccccc1CN1CCc2sccc2C1 [Ticlopidine, ticlopidine] | – | – | – | – | – | – | 21 µM | 23 µM | – | – | – | – | – | – | – | – | –
5 | CN(C)CCCN1c2ccccc2Sc2ccc(Cl)cc21 [Chlorpromazine, chlorpromazine] | low cholestatic risk (Compounds with a CIx ≥ 0.80) | 0.87 ± 0.06 | 0.88 and 0.81 and 0.93 | 0.63 and 0.65 and 0.69 | 17 µM | 14 µM | 1.7 µM | 4.5 µM | 14 µM | 12 µM | low cholestatic risk (Compounds with a CIx ≥ 0.80) | 0.90 ± 0.12 | 0.85 and 1.07 and 0.83 | 0.80 and 0.71 and 0.77 | 0.38 | 148 µM | Cholestatic risk classification based on CIx (HepaRG spheroids [1]; 14 days): cholestatic risk (compounds with a CIx ≤ 0.80 were considered to have cholestatic risk); CIx (mean of the independent experiments) (HepaRG spheroids [1]; 14 days of repeated exposure): 0.66 ± 0.03; intracellular BA accumulation (tauro-nor-THCA-24-DBD) (PHH spheroids [7]): cytoplasmic accumulation; toxicity to the spheroids (HepaRG spheroids [8]; 10 μM, 8 days): toxic; intracellular BA accumulation (tauro-nor-THCA-24-DBD) (HepaRG spheroids [8]; repeated exposure for 8 days): cytoplasmic accumulation; DR5 expression [5, 19]: significantly induced DR5; NFE2L2 expression [5, 19]: significantly further increased NFE2L2 expression; SRXN1 expression [5, 19]: significant induction of SRXN1; expression of ABCB11, encoding BSEP ([5]; normalized to GAPDH): inhibited the expression of ABCB11; DR5 expression ([5]; toxic concentration alone (80x BA; 12.5 µM CPZ), Supplementary Fig. S3): no change in DR5 expression; DR5 expression [6]: significantly induced DR5; NFE2L2 expression [6]: significantly further increased NFE2L2 expression; SRXN1 expression [6]: significant induction of SRXN1; expression of ABCB11, encoding BSEP ([6]; normalized to GAPDH): inhibited the expression of ABCB11; F-actin expression and integrity [9]: reduced F-actin expression and disrupted its integrity; F-actin expression and integrity [10]: reduced F-actin expression and disrupted its integrity; CIx (PHH spheroids [3]; 8 days): 0.75; Cholestatic risk classification based on CIx (PHH spheroids [3]; 14 days): cholestatic risk (compounds with a CIx ≤ 0.80 were considered to have cholestatic risk); CIx (PHH spheroids [4]): 0.69
6 | Cc1c(C)c2c(c(C)c1O)CCC(C)(COc1ccc(CC3SC(=O)NC3=O)cc1)O2 (stereo not shown) [Troglitazone, troglitazone] | cholestatic risk (compounds with a CIx ≤ 0.80 were considered to have cholestatic risk) | 0.71 ± 0.17 | 0.56 and 0.90 and 0.67 | – | – | – | 8.8 µM | 14 µM | 11 µM | 6.2 µM | cholestatic risk (compounds with a CIx ≤ 0.80 were considered to have cholestatic risk) | 0.80 ± 0.17 | 0.99 and 0.72 and 0.67 | 0.45 and 0.67 and 0.86 | 0.63 | 2.7 µM | –
7 | CN(CCOc1ccc(CC2SC(=O)NC2=O)cc1)c1ccccn1 (stereo not shown) [Rosiglitazone, rosiglitazone] | – | – | – | – | – | – | 17 µM | 19 µM | – | – | – | – | – | – | 0.89 | – | –
8 | COc1ccccc1Oc1c(NS(=O)(=O)c2ccc(C(C)(C)C)cc2)nc(-c2ncccn2)nc1OCCO [Bosentan, bosentan] | cholestatic risk (compounds with a CIx ≤ 0.80 were considered to have cholestatic risk) | 0.60 ± 0.06 | 0.63 and 0.54 and 0.64 | 0.61 and 0.50 and 0.48 | 187 µM | 115 µM | 54 µM | 102 µM | 66 µM | 55 µM | cholestatic risk (compounds with a CIx ≤ 0.80 were considered to have cholestatic risk) | 0.19 ± 0.12 | – | 0.11 and 0.12 and 0.16 | 0.53 | 38.1 µM | –
9 | Cc1ccc(C(=O)c2cc(O)c(O)c([N+](=O)[O-])c2)cc1 [Tolcapone, tolcapone] | – | – | – | – | – | – | 13 µM | 14 µM | – | – | – | – | – | – | 0.93 | – | –

Reference: article PMC5069690, “Hepatic 3D spheroid models for the detection and study of compounds with cholestatic liability” (Scientific Reports, 2016)
